# From patent US7521057B2, “Lamprey GnRH-III polypeptides and methods of making thereof” (University of New Hampshire, priority 2002, dated 2009)
# Where two headings read alike, the source gives them in different places. [ ]: non-standard residue; d: D form. pGlu = O=C1CC[C@@H](C(=O)O)N1
# Key:
# type-I GnRH-binding site = test: Competition binding in pituitary of male sea lampreys, type-I GnRH binding site; set-up: species or system P. marinus; settings: for Ki: pituitary of adult male land-locked P. marinus, tracer iodinated [DAla6, Pro9Net]-mammalian GnRH, K1 from IC50
# Description: (§1) In another study, the binding affinity in the pituitary of male sea lampreys was determined with lamprey GnRH-I and -III analogs in an effort to better understand the structure-activity relations of the lamprey GnRH molecule (Mateme and Sower, unpublished). Competition studies were performed using the iodinated DAla^6, Pro^9Net]-mammalian GnRH as the tracer with each of the following analogs: [D-Phe^2, Gly^6]-lGnRH-I (Peninsula Labs, Cali.); and the following lGnRH-III analogs: [D-Phe^2,6, Pro^3], [D-Phe^2, Gly^6], and [Ac-Delta-3Pro, 4FDPhe^2-D-Trp^3,6] from American Peptide, Cali. […] The level of significance was P<0.0001 See TABLE 5 for the results of these experiments. The results shown in Table 5 summarize experiments using various analogs.
# (§2) Inhibition constants (K1) of lamprey GnRH-putative antagonists in the pituitary of adult male land-locked P. marinus. […] The data were plotted on a logit-log plot and the K1 determined from the IC50 using the Prism software.
# [1] = target: type-II GnRH binding site; test: Competition binding in pituitary of male sea lampreys, type-II GnRH binding site; set-up: species or system P. marinus; settings: for Ki: pituitary of adult male land-locked P. marinus, tracer iodinated [DAla6, Pro9Net]-mammalian GnRH, K1 from IC50
# Description: as §1, §2
# [2] = Plasma GnRHa after injection of sustained-release microspheres or implants in lampreys; assay type: in vivo, sea lamprey
# Description: Thus, experiments were conducted to determine the optimal injection site and delivery agent that would best ensure a slow, constant release of the active compound, in this case, D-Ala^6 Pro^9Net mammal GnRH (GnRHa) over a period of four weeks. In the plasma, GnRH is easily degraded by protolytic enzymes. Therefore a simple injection will not elevate plasma GnRH levels for the duration of time required to ensure the appropriate reproductive effect. If a GnRH analog were used to sterilize wild fish, the method would have to maintain high levels of GnRH in the plasma for the length of the spawning season, or about 6 weeks in the case of sea lamprey in the Great Lakes. It was believed that controlled release of GnRH could be attained by injection of biodegradable microspheres or implants containing a GnRH analog, and experiments were performed to determine if high enough GnRH levels could be maintained for the required duration using such a method.
# In Applicant's experiments microspheres (in a dose of 75 ug GnRHa/lamprey) and 2 mm implants were injected either intramuscularly (IM) or intraperitoneally (IP). At week 1, plasma GnRHa was detected in two-thirds of the lampreys injected IP, either with microspheres (5.0+/−1.3 ng/ml) or implants (1.6+/−0.3 ng/ml).
# Only the lampreys injected IM with microspheres still had detectable levels of GnRHa after 3 weeks (2.9+/−1.5 ng/ml). Based on the results of these experiments, the best method of sustained release of GnRHa was determined to be via IM injection using microspheres.
# adult sea lampreys = settings: cited from earlier work; for plasma estradiol: adult female lampreys, injections; for ovulation / timing of ovulation: female lampreys; for gametogenesis: male and female sea lampreys, previous studies
# [3] = tested on: adult male and female sea lamprey; settings: compared to controls, cited from earlier work; for spawning behavior: experiment 2, females
# [4] = pituitary of male sea lampreys, in words
Molecule,Ki (type-I GnRH-binding site),Ki [1],plasma estradiol (adult sea lampreys),ovulation / timing of ovulation (adult sea lampreys),gametogenesis (adult sea lampreys),spawning behavior [3],"spawning activity ([3]; experiment 2, males)","spawning activity ([3]; experiment 3, males)",further results
"CCNC(=O)[C@@H]1CCCN1C(=O)[C@H](CCCNC(=N)N)NC(=O)[C@H](CC(C)C)NC(=O)[C@@H](C)NC(=O)[C@H](Cc1ccc(O)cc1)NC(=O)[C@H](CO)NC(=O)[C@H](Cc1c[nH]c2ccccc12)NC(=O)[C@H](Cc1c[nH]cn1)NC(=O)[C@@H]1CCC(=O)N1 [[DAla^6, Pro^9Net]-m GnRH, [DAla^6, Pro^9Net]-mammalian GnRH]",0.00311 nM,89 nM,significantly elevated,advanced ovulation by at least several weeks,–,–,–,–,"affinity for type-I GnRH binding site (type-I GnRH-binding site; [4]): high affinity; affinity for type-II GnRH binding site [1, 4]: high affinity; level at 504 h ([2]; plasma, 75 ug GnRHa/lamprey, after 3 weeks, microspheres injected IM): 2.9 ng/mL; level at 168 h ([2]; plasma, 75 ug GnRHa/lamprey, week 1, microspheres injected IM): 4.2 ng/mL; level at 336 h ([2]; plasma, 75 ug GnRHa/lamprey, week 2, microspheres injected IM): 3.1 ng/mL; level at 168 h ([2]; plasma, week 1, 2 mm implants injected IP): 1.6 ng/mL; level at 168 h ([2]; plasma, week 1, microspheres injected IP, 75 ug GnRHa/lamprey): 5 ng/mL; share of lampreys with detectable plasma GnRHa ([2]; week 1, injected IP, microspheres or implants): two-thirds; share of lampreys with detectable plasma GnRHa ([2]; week 1, microspheres injected IM): Ninety percent; share of lampreys with detectable plasma GnRHa ([2]; week 2, IP with microspheres and IP with implants): less than thirty percent; share of lampreys with detectable plasma GnRHa ([2]; week 2, microspheres injected IM): ninety-two percent"
"[Ac-3 Pro^1, 4-FD-Phe^3, D-Trp^3,6] mammalian GnRH",–,–,no apparent effect,no apparent effect,decrease gametogenesis,–,–,–,–
"[D-Ala^6, Pro^9 Net lamprey GnRH] [lamprey GnRH agonist]",–,–,–,–,–,inhibited,stimulated earlier spawning activity,inhibited spawning activity,–
"[D-Phe^2,6, Pro^3] lamprey GnRH",–,–,–,inhibited ovulation,decrease gametogenesis,inhibited,stimulated earlier spawning activity,induced earlier spawning activity,plasma progesterone levels (adult sea lampreys; male sea lampreys): reduced; spermiation (adult sea lampreys; male sea lampreys): inhibited spermiation
"[D-Phe^2, Gly^6]-lGnRH-I [[D-Phe^2, Gly^6]-1GnRH-I]",1.37 nM,5650 nM,–,–,–,–,–,–,–
lamprey GnRH-I: native decapeptide pGlu His Tyr Ser Leu Glu Trp Lys Pro Gly-NH2 (Table 1) ([pGlu]HYSLEWKPG-NH2; SMILES CC(C)C[C@H](NC(=O)[C@H](CO)NC(=O)[C@H](Cc1ccc(O)cc1)NC(=O)[C@H](Cc1c[nH]cn1)NC(=O)[C@@H]1CCC(=O)N1)C(=O)N[C@@H](CCC(=O)O)C(=O)N[C@@H](Cc1c[nH]c2ccccc12)C(=O)N[C@@H](CCCCN)C(=O)N1CCC[C@H]1C(=O)NCC(N)=O),–,–,–,–,–,–,–,delayed spawning activity,spermiation/ovulation (adult sea lampreys; adult sea lampreys): induce; steroidogenesis (adult sea lampreys; adult sea lampreys): induce
